Measurements: patent US7683069B2, “3-substituted-4-pyrimidone derivatives” (Mitsubishi Tanabe Pharma Corporation, priority 2002, dated 2010)

biological target: T1, bovine cerebral TPK1 (Bos taurus, UniProt A0A3Q1MT31); assay: Inhibitory activity against P-GS1 phosphorylation by bovine cerebral TPK1; format: biochemical; conditions: 41.7 μM [γ-32P] ATP, 25° C., 2 hours, pH 6.5
T1 construct: bovine cerebral TPK1; from tissue; host or cells: bovine brain (cerebrum)
Protocol: Inhibitory Activity of the Medicament of the Present Invention Against P-GS1 Phosphorylation by Bovine Cerebral TPK1
A mixture containing 100 mM MES-sodium hydroxide (pH 6.5), 1 mM magnesium acetate, 0.5 mM EGTA, 5 mM β-mercaptoethanol, 0.02% Tween 20, 10% glycerol, 12 μg/ml P-GS1, 41.7 μM [γ-^32P] ATP (68 kBq/ml), bovine cerebral TPK1 and a compound shown in Table (a final mixture contained 1.7% DMSO deriving from a solution of a test compound prepared in the presence of 10% DMSO) was used as a reaction system. The phosphorylation was started by adding ATP, and the reaction was conducted at 25° C. for 2 hours, and then stopped by adding 21% perchloric-acid on ice cooling. The reaction mixture was centrifuged at 12,000 rpm for 5 minutes and adsorbed on P81 paper (Whatmann), and then the paper was washed four times with 75 mM phosphoric acid, three times with water and once with acetone. The paper was dried, and the residual radioactivity was measured using a liquid scintillation counter.

T1 sequence (A0A3Q1MT31 1-419): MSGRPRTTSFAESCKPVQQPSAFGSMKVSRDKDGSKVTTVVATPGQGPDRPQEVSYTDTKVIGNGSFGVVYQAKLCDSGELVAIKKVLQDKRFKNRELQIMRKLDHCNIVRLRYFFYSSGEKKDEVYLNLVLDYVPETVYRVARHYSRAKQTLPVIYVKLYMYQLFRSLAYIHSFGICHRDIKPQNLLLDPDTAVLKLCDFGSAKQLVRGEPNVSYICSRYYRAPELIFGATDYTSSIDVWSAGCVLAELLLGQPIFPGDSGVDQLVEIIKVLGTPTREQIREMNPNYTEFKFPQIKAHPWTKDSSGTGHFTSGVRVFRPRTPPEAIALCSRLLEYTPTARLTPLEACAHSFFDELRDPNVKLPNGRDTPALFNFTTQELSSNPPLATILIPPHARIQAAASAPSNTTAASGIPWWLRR

Row | IC50 | SMILES
1 | 7 nM | Cn1c(N2CCC=C(c3ccccc3)C2)nc(-c2ccncc2)cc1=O [Compound A001, 2-(5-phenyl-3,6-dihydro-2H-pyridin-1-yl)-3-methyl-6-pyridin-4-yl-3H-pyrimidin-4-one]
2 | 1.2 nM | Cn1c(N2CCC=C(c3ccccc3F)C2)nc(-c2ccncc2)cc1=O [Compound A002, 2-[5-(2-fluorophenyl)-3,6-dihydro-2H-pyridin-1-yl]-3-methyl-6-pyridin-4-yl-3H-pyrimidin-4-one]
3 | 13 nM | Cn1c(N2CCC=C(c3ccc(F)cc3)C2)nc(-c2ccncc2)cc1=O [Compound A004, 2-[5-(4-fluorophenyl)-3,6-dihydro-2H-pyridin-1-yl]-3-methyl-6-pyridin-4-yl-3H-pyrimidin-4-one]
4 | 17 nM | Cn1c(N2CCC=C(c3ccc(F)cc3F)C2)nc(-c2ccncc2)cc1=O [Compound A012, 2-[5-(2,4-difluorophenyl)-3,6-dihydro-2H-pyridin-1-yl]-3-methyl-6-pyridin-4-yl-3H-pyrimidin-4-one]
5 | 5 nM | COc1ccccc1C1=CCCN(c2nc(-c3ccncc3)cc(=O)n2C)C1 [Compound A020, 2-[5-(2-methoxyphenyl)-3,6-dihydro-2H-pyridin-1-yl]-3-methyl-6-pyridin-4-yl-3H-pyrimidin-4-one]
6 | 8.7 nM | COc1ccc(C2=CCCN(c3nc(-c4ccncc4)cc(=O)n3C)C2)cc1 [Compound A022, 2-[5-(4-methoxyphenyl)-3,6-dihydro-2H-pyridin-1-yl]-3-methyl-6-pyridin-4-yl-3H-pyrimidin-4-one]
7 | 16 nM | COc1cccc(OC)c1C1=CCCN(c2nc(-c3ccncc3)cc(=O)n2C)C1 [Compound A026, 2-[5-(2,6-dimethoxyphenyl)-3,6-dihydro-2H-pyridin-1-yl]-3-methyl-6-pyridin-4-yl-3H-pyrimidin-4-one]
8 | 31 nM | Cn1c(N2CCC=C(c3ccccc3C(F)(F)F)C2)nc(-c2ccncc2)cc1=O [Compound A027, 2-[5-(2-trifluoromethylphenyl)-3,6-dihydro-2H-pyridin-1-yl]-3-methyl-6-pyridin-4-yl-3H-pyrimidin-4-one]
9 | 8 nM | Cn1c(N2CCC=C(Cc3ccccc3)C2)nc(-c2ccncc2)cc1=O [Compound A050, 2-(5-benzyl-3,6-dihydro-2H-pyridin-1-yl)-3-methyl-6-pyridin-4-yl-3H-pyrimidin-4-one]
10 | 27 nM | Cn1c(N2CCC=C(COc3ccc(F)cc3)C2)nc(-c2ccncc2)cc1=O [Compound A056, 2-[5-(4-fluorophenoxymethyl)-3,6-dihydro-2H-pyridin-1-yl]-3-methyl-6-pyridin-4-yl-3H-pyrimidin-4-one]
11 | 24 nM | Cn1c(N2CCC=C(c3ccc(C(=O)N4CCCC4)cc3)C2)nc(-c2ccncc2)cc1=O [Compound A057, 2-[5-(4-pyrrolidinylcarbonylphenyl)-3,6-dihydro-2H-pyridin-1-yl]-3-methyl-6-pyridin-4-yl-3H-pyrimidin-4-one]
12 | 6.5 nM | Cn1c(N2CCC=C(c3ccccc3)C2)nc(-c2ccncn2)cc1=O [Compound B001, 2-(5-phenyl-3,6-dihydro-2H-pyridin-1-yl)-3-methyl-6-pyrimidin-4-yl-3H-pyrimidin-4-one]
13 | 1.1 nM | Cn1c(N2CCC=C(c3ccccc3F)C2)nc(-c2ccncn2)cc1=O [Compound B002, 2-[5-(2-fluorophenyl)-3,6-dihydro-2H-pyridin-1-yl]-3-methyl-6-pyrimidin-4-yl-3H-pyrimidin-4-one]
14 | 6.3 nM | Cn1c(N2CCC=C(c3ccc(F)cc3)C2)nc(-c2ccncn2)cc1=O [Compound B004, 2-[5-(4-fluorophenyl)-3,6-dihydro-2H-pyridin-1-yl]-3-methyl-6-pyrimidin-4-yl-3H-pyrimidin-4-one]
15 | 0.38 nM | Cn1c(N2CCC=C(c3ccccc3Cl)C2)nc(-c2ccncn2)cc1=O [Compound B005, 2-[5-(2-chlorophenyl)-3,6-dihydro-2H-pyridin-1-yl]-3-methyl-6-pyrimidin-4-yl-3H-pyrimidin-4-one]
16 | 3.9 nM | Cn1c(N2CCC=C(c3ccc(F)cc3F)C2)nc(-c2ccncn2)cc1=O [Compound B012, 2-[5-(2,4-difluorophenyl)-3,6-dihydro-2H-pyridin-1-yl]-3-methyl-6-pyrimidin-4-yl-3H-pyrimidin-4-one]
17 | 5.6 nM | Cn1c(N2CCC=C(c3ccc(Cl)cc3Cl)C2)nc(-c2ccncn2)cc1=O [Compound B017, 2-[5-(2,4-dichlorophenyl)-3,6-dihydro-2H-pyridin-1-yl]-3-methyl-6-pyrimidin-4-yl-3H-pyrimidin-4-one]
18 | 7.7 nM | COc1ccc(C2=CCCN(c3nc(-c4ccncn4)cc(=O)n3C)C2)cc1 [Compound B022, 2-[5-(4-methoxyphenyl)-3,6-dihydro-2H-pyridin-1-yl]-3-methyl-6-pyrimidin-4-yl-3H-pyrimidin-4-one]
19 | 2.4 nM | COc1cccc(OC)c1C1=CCCN(c2nc(-c3ccncn3)cc(=O)n2C)C1 [Compound B026, 2-[5-(2,6-dimethoxyphenyl)-3,6-dihydro-2H-pyridin-1-yl]-3-methyl-6-pyrimidin-4-yl-3H-pyrimidin-4-one]
20 | 2.6 nM | Cn1c(N2CCC=C(c3ccccc3C(F)(F)F)C2)nc(-c2ccncn2)cc1=O [Compound B027, 2-[5-(2-trifluoromethylphenyl)-3,6-dihydro-2H-pyridin-1-yl]-3-methyl-6-pyrimidin-4-yl-3H-pyrimidin-4-one]
21 | 17 nM | Cn1c(N2CCC=C(c3ccccc3-c3ccccc3)C2)nc(-c2ccncn2)cc1=O [Compound B033, 2-(5-biphenyl-2-yl-3,6-dihydro-2H-pyridin-1-yl)-3-methyl-6-pyrimidin-4-yl-3H-pyrimidin-4-one]
22 | 17 nM | Cn1c(N2CCC=C(c3ccsc3)C2)nc(-c2ccncn2)cc1=O [Compound B043, 2-(5-thiophen-3-yl-3,6-dihydro-2H-pyridin-1-yl)-3-methyl-6-pyrimidin-4-yl-3H-pyrimidin-4-one]
23 | 9 nM | Cn1c(N2CCC=C(c3cccs3)C2)nc(-c2ccncn2)cc1=O [Compound B044, 2-(5-thiophen-2-yl-3,6-dihydro-2H-pyridin-1-yl)-3-methyl-6-pyrimidin-4-yl-3H-pyrimidin-4-one]
24 | 5.1 nM | Cn1c(N2CCC=C(c3noc4ccccc34)C2)nc(-c2ccncn2)cc1=O [Compound B049, 2-[5-(benzisoxazole-3-yl)-3,6-dihydro-2H-pyridin-1-yl]-3-methyl-6-pyrimidin-4-yl-3H-pyrimidin-4-one]
25 | 6.8 nM | Cn1c(N2CCC=C(c3ccc(C(=O)N4CCCC4)cc3)C2)nc(-c2ccncn2)cc1=O [Compound B057, 2-[5-(4-pyrrolidinylcarbonylphenyl)-3,6-dihydro-2H-pyridin-1-yl]-3-methyl-6-pyrimidin-4-yl-3H-pyrimidin-4-one]
